Measured values taken from US11040033B2 (Gilead Sciences, Inc., priority 2017, dated 2021).

Each compound was assayed against T1, IDO1 (Homo sapiens, UniProt P14902) (assay: Cell-based (HeLa) assay for measurement of IDO1 inhibition (kynurenine levels in supernatant after IFNγ induction)). Details: H1-HeLa cells, IFNγ-induced IDO1, 48 hour incubation, kynurenine absorbance at 480 nm; geometric mean of a minimum of four determinations.
T1 construct: HeLa cells were treated with a test compound in the presence of IFNγ, which induces IDO1 expression; endogenous in cells; host or cells: H1-HeLa cells (ATCC #CRL-1958), induced with IFNγ
Protocol: To measure IDO1 inhibition in tissue culture, HeLa cells were treated with a test compound in the presence of IFNγ, which induces IDO1 expression. Following incubation, cell supernatants were assayed for kynurenine levels, an indicator of IDO1 activity.
H1-HeLa cells (ATCC #CRL-1958) were seeded in 384-well plates (Greiner #82051-282) at a volume […] (Corning #15-018-CM) supplemented with 10% FBS (Corning #35-011-CV) and 1% P/S/G (Corning #30-009-CL) at a density of 1,250 cells/well and incubated overnight at 37° C., 5% CO2/100% humidity. The following day, the test compounds were added in DMSO (0.5% final) at various concentrations, and IDO1 was inducibly expressed by the addition of 50 uL/well of 50 ng/mL of INFγ(Peprotech #300-02) in cell plating media. As a positive control, 50 uL of the cell plating media without IFNγ was added to several wells. Following a 48 hour incubation, the plates were spun down at 1,200 RPM for 5 min at 10° C. 65 μL/well of the supernatant was then transferred to new 384-well plates (Thermo #262160) that contained 10 uL/well of 30% TCA (Sigma #T0699), and the plates were sealed and incubated at 60° C. for 30 min. The plates were then centrifuged for 15 min at 2,000 RPM at 10° C. 40 μL/well of the supernatant was transferred to new 384-well plates (Thermo #262160) and was reacted with 40 μL/well of 2% (w/v) p-dimethylaminobenzaldehyde (Sigma #156417) in glacial acetic acid (Sigma #A6283). The reaction was incubated at room temperature for 10 min and absorbance at 480 nm was read using a PerkinElmer Envision plate reader.
Data in Table 1 were normalized based on positive (−IFNγ) and negative (+IFNγ) controls and EC50 values were calculated from the fit of the dose-response curves to a four-parameter equation. All EC50 values represent geometric mean values of a minimum of four determinations. These assays generally produced results within 2-fold of the reported mean.

T1 sequence (P14902 whole entry): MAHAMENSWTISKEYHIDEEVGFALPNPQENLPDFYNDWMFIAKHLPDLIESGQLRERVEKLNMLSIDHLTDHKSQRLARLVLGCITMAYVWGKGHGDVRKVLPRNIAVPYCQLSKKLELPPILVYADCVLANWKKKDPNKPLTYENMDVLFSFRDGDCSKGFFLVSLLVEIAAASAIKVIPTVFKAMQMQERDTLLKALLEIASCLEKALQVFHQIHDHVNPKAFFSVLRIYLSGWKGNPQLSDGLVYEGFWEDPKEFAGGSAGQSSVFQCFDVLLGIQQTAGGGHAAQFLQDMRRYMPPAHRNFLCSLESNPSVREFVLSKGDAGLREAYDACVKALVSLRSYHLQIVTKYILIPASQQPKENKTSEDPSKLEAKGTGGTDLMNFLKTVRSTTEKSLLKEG

Row | Structure (SMILES) | EC50 [nM]
1 | Fc1ccc2[nH]c(-c3cc(-c4cccn5c(-c6cccc(F)c6F)ncc45)cnc3C(F)(F)F)nc2c1 [Example 98, 2-(5-(3-(2,3-difluorophenyl)imidazo[1,5-a]pyridin-8-yl)-2-(trifluoromethyl)pyridin-3-yl)-5-fluoro-1H-benzo[d]imidazole] | 36.6
2 | O=C(Nc1ccc(F)cc1)c1cc(-c2cccn3c(-c4cccc(F)c4F)ncc23)cnc1C1CC1 [Example 82, 2-cyclopropyl-5-(3-(2,3-difluorophenyl)imidazo[1,5-a]pyridin-8-yl)-N-(4-fluorophenyl)nicotinamide] | 17.5
3 | Cc1c(F)cc(-c2cccn3c(-c4cccc(F)c4F)ncc23)cc1C(=O)Nc1ccc(F)cc1 [Example 84] | 75.3
4 | Cc1ncc(-c2cccn3c(-c4cccc(F)c4F)ncc23)cc1C(=O)Nc1cccc(OC(F)(F)F)c1 [Example 72, 5-(3-(2,3-difluorophenyl)imidazo[1,5-a]pyridin-8-yl)-2-methyl-N-(3-(trifluoromethoxy)phenyl)nicotinamide] | 380
5 | Cc1ncc(-c2cccn3c(-c4cccc(F)c4F)nc(Br)c23)cc1C(=O)Nc1ccc(F)cc1 [Example 92, 5-(1-bromo-3-(2,3-difluorophenyl)imidazo[1,5-a]pyridin-8-yl)-N-(4-fluorophenyl)-2-methylnicotinamide] | 273
6 | Cc1cc(-c2cnc(C)c(C(=O)Nc3ccc(F)cc3)c2)c2cnc(-c3cccc(F)c3F)n2c1 [Example 78, 5-(3-(2,3-difluorophenyl)-6-methylimidazo[1,5-a]pyridin-8-yl)-N-(4-fluorophenyl)-2-methylnicotinamide] | 895
7 | Cc1ncc(-c2cccn3c(-c4cccc(F)c4F)ncc23)cc1C(=O)Nc1ccc(Cl)cc1F [Example 64, N-(4-chloro-2-fluorophenyl)-5-(3-(2,3-difluorophenyl)imidazo[1,5-a]pyridin-8-yl)-2-methylnicotinamide] | 24.3
8 | O=C(Nc1ccc(F)cc1)c1cc(-c2cccn3c(-c4cccc(F)c4F)ncc23)ccc1C(F)(F)F [Example 48, 5-(3-(2,3-difluorophenyl)imidazo[1,5-a]pyridin-8-yl)-N-(4-fluorophenyl)-2-(trifluoromethyl)benzamide] | 15.9
9 | Cc1ccc(-c2cccn3c(-c4cccc(F)c4F)ncc23)c(F)c1C(=O)Nc1ccc(F)cc1 [Example 42, 3-(3-(2,3-difluorophenyl)imidazo[1,5-a]pyridin-8-yl)-2-fluoro-N-(4-fluorophenyl)-6-methylbenzamide] | 17.7
10 | Cc1ncc(-c2cccn3c(-c4cccc(F)c4F)ncc23)cc1-c1nc2ccccc2[nH]1 [Example 99, 2-(5-(3-(2,3-difluorophenyl)imidazo[1,5-a]pyridin-8-yl)-2-methylpyridin-3-yl)-1H-benzo[d]imidazole] | 59.9
11 | Cc1ncc(-c2cccn3c(-c4cccc(F)c4F)ncc23)cc1C(=O)Nc1ccccc1 [Example 66, 5-(3-(2,3-difluorophenyl)imidazo[1,5-a]pyridin-8-yl)-2-methyl-N-phenylnicotinamide] | 15.3
12 | Cc1cnc(-c2cccn3c(-c4cccc(F)c4F)ncc23)nc1C(=O)Nc1ccc(F)cc1 [Example 65, 2-(3-(2,3-difluorophenyl)imidazo[1,5-a]pyridin-8-yl)-N-(4-fluorophenyl)-5-methylpyrimidine-4-carboxamide] | 399
13 | Cc1ncc(-c2cccn3c(-c4cccc(F)c4F)ncc23)cc1C(=O)Nc1ccc(F)c(Br)c1 [Example 63, N-(3-bromo-4-fluorophenyl)-5-(3-(2,3-difluorophenyl)imidazo[1,5-a]pyridin-8-yl)-2-methylnicotinamide] | 307
14 | Cc1ncc(-c2cccn3c(-c4cccc(F)c4F)ncc23)cc1C(=O)Nc1ccc(F)cn1 [Example 60, 5-(3-(2,3-difluorophenyl)imidazo[1,5-a]pyridin-8-yl)-N-(5-fluoropyridin-2-yl)-2-methylnicotinamide] | 21.1
15 | Cc1ncc(-c2cccn3c(-c4cccc(F)c4F)ncc23)cc1-c1nc2cc(F)ccc2[nH]1 [Example 97, 2-(5-(3-(2,3-difluorophenyl)imidazo[1,5-a]pyridin-8-yl)-2-methylpyridin-3-yl)-5-fluoro-1H-benzo[d]imidazole] | 64.9
16 | Cc1ncc(-c2cccn3c(-c4cccc(F)c4F)ncc23)cc1C(=O)Nc1ccc(F)c(F)c1 [Example 68] | 101
17 | Cc1ncc(-c2cccn3c(-c4ccccc4C(F)(F)F)ncc23)cc1C(=O)Nc1ccc(F)cc1 [Example 16, N-(4-fluorophenyl)-2-methyl-5-(3-(2-(trifluoromethyl)phenyl)imidazo[1,5-a]pyridin-8-yl)nicotinamide] | 239
18 | Cc1cnc(-c2cccn3c(-c4cccc(F)c4F)ncc23)cc1C(=O)Nc1ccc(F)cc1 [Example 56, 2-(3-(2,3-difluorophenyl)imidazo[1,5-a]pyridin-8-yl)-N-(4-fluorophenyl)-5-methylisonicotinamide] | 85.7
19 | Cc1ncc(-c2cccn3c(C4CCCC4)ncc23)cc1C(=O)Nc1ccc(F)cc1 [Example 74, 5-(3-cyclopentylimidazo[1,5-a]pyridin-8-yl)-N-(4-fluorophenyl)-2-methylnicotinamide] | 460

Next, values leading:

Row | EC50 [nM] | Structure (SMILES)
20 | 104 | Cc1ncc(-c2cccn3c(-c4c(F)cccc4F)ncc23)cc1C(=O)Nc1ccc(F)cc1 [Example 24, 5-(3-(2,6-difluorophenyl)imidazo[1,5-a]pyridin-8-yl)-N-(4-fluorophenyl)-2-methylnicotinamide]
21 | 26.8 | Cc1ncc(-c2cccn3c(-c4cccc(F)c4)ncc23)cc1C(=O)Nc1ccc(F)cc1 [Example 35, N-(4-fluorophenyl)-5-(3-(3-fluorophenyl)imidazo[1,5-a]pyridin-8-yl)-2-methylnicotinamide]
22 | 16.4 | O=C(Nc1ccc(F)cc1)c1cc(-c2cccn3c(-c4ncccn4)ncc23)ccc1C(F)(F)F [Example 45]
23 | 13.3 | Cc1ncc(-c2cccn3c(-c4cccc(F)c4Cl)ncc23)cc1C(=O)Nc1ccc(F)cc1 [Example 87, 5-(3-(2-chloro-3-fluorophenyl)imidazo[1,5-a]pyridin-8-yl)-N-(4-fluorophenyl)-2-methylnicotinamide]
24 | 30.8 | Cc1ncc(-c2cccn3c(-c4cccc(Cl)c4Cl)ncc23)cc1C(=O)Nc1ccc(F)cc1 [Example 86, 5-(3-(2,3-dichlorophenyl)imidazo[1,5-a]pyridin-8-yl)-N-(4-fluorophenyl)-2-methylnicotinamide]
25 | 112 | Cc1ncc(-c2cccn3c(-c4cc(F)ccn4)ncc23)cc1C(=O)Nc1ccc(F)cc1 [Example 23, N-(4-fluorophenyl)-5-(3-(4-fluoropyridin-2-yl)imidazo[1,5-a]pyridin-8-yl)-2-methylnicotinamide]
26 | 15.7 | Cc1ncc(-c2cccn3c(-c4ccccc4F)ncc23)cc1C(=O)Nc1ccc(F)cc1 [Example 49, N-(4-fluorophenyl)-5-(3-(2-fluorophenyl)imidazo[1,5-a]pyridin-8-yl)-2-methylnicotinamide]
27 | 44.7 | Cc1ccccc1-c1ncc2c(-c3cnc(C)c(C(=O)Nc4ccc(F)cc4)c3)cccn12 [Example 29, N-(4-fluorophenyl)-2-methyl-5-(3-(o-tolyl)imidazo[1,5-a]pyridin-8-yl)nicotinamide]
28 | 365 | Cn1cnc(-c2ncc3c(-c4ccc(C(F)(F)F)c(C(=O)Nc5ccc(F)cc5)c4)cccn23)c1 [Example 13, N-(4-fluorophenyl)-5-(3-(1-methyl-1H-imidazol-4-yl)imidazo[1,5-a]pyridin-8-yl)-2-(trifluoromethyl)benzamide]
29 | 1200 | Cn1nncc1-c1ncc2c(-c3ccc(C(F)(F)F)c(C(=O)Nc4ccc(F)cc4)c3)cccn12 [Example 8, N-(4-fluorophenyl)-5-(3-(1-methyl-1H-1,2,3-triazol-5-yl)imidazo[1,5-a]pyridin-8-yl)-2-(trifluoromethyl)benzamide]
30 | 38.3 | O=C(Nc1ccc(F)cc1)c1cc(-c2cccn3c(-c4cccnc4)ncc23)ccc1C(F)(F)F [Example 31, N-(4-fluorophenyl)-5-(3-(pyridin-3-yl)imidazo[1,5-a]pyridin-8-yl)-2-(trifluoromethyl)benzamide]
31 | 19.3 | Cc1ncc(-c2cccn3c(-c4ccccc4Cl)ncc23)cc1C(=O)Nc1ccc(F)cc1 [Example 80, 5-(3-(2-chlorophenyl)imidazo[1,5-a]pyridin-8-yl)-N-(4-fluorophenyl)-2-methylnicotinamide]
32 | 1220 | Cc1ccc(-c2cccn3c(-c4nnco4)ncc23)cc1C(=O)Nc1ccc(F)cc1 [Example 7]
33 | 23.1 | Cc1ccc(-c2cccn3c(-c4ncco4)ncc23)cc1C(=O)Nc1ccc(F)cc1 [Example 40, N-(4-fluorophenyl)-2-methyl-5-(3-(oxazol-2-yl)imidazo[1,5-a]pyridin-8-yl)benzamide]
